From patent US7232904B2, “Crystal of arylethenesulfonamide derivative and preparation process thereof” (Astellas Pharma Inc., priority 2001, dated 2007)

Tests used:
[1] = system: ET receptors, particularly an ETA receptor; details: competitively inhibits binding to ET receptors; cited from earlier work
[2] = hygroscopicity of crystals (FIGS. 10 to 12); type: physicochemical; details: for moisture absorbed / moisture absorbed, corresponding moles of water: extent of moisture absorption with increase of humidity; for humidity above which moisture is absorbed: humidity exceeded before moisture absorption
Excerpt: Also, FIGS. 10 to 12 show the hygroscopicity of the three kinds of novel crystals of the potassium salt of Compound A of the invention.

[3] = heat stability of crystals; type: physicochemical; details: high melting point
[4] = preservation stability in a reagent bottle; type: physicochemical; details: normal temperature, atmospheric pressure
Excerpt: Additionally, the α-type crystal, β-type crystal and γ-type crystal of the potassium salt of Compound A of the invention are morphologically pure. […] Moreover, since it is hardly electrified and is excellent in fluidity, it has advantages such that works are easy in adjusting solid formulations such as powders, granules, tablets, and capsules.

[5] = listed as γ-type crystal of the potassium salt of Compound A
[6] = listed as α-type crystal of the potassium salt of Compound A
[7] = listed as β-type crystal of the potassium salt of Compound A

COc1ccccc1Oc1c(NS(=O)(=O)/C=C/c2ccccc2)nc(-c2ncccn2)nc1OC.[K] [potassium salt of Compound A]
affinity with ET receptors [1]: high affinity

COc1ccccc1Oc1c(NS(=O)(=O)/C=C/c2ccccc2)nc(-c2ncccn2)nc1OC.[K] [γ-type crystal]
moisture absorbed [2, 5]: about 1% | moisture absorbed, corresponding moles of water [2, 5]: 0.3 moles of water | heat stability (in words) [3]: excellent in heat stability

COc1ccccc1Oc1c(NS(=O)(=O)/C=C/c2ccccc2)nc(-c2ncccn2)nc1OC.[K] [α-type crystal]
moisture absorbed [2, 6]: about 6% | moisture absorbed, corresponding moles of water [2, 6]: 1.8 moles of water | humidity above which moisture is absorbed [2, 6]: exceeded 65% | stable in the preservation state [4]: over 2 years

COc1ccccc1Oc1c(NS(=O)(=O)/C=C/c2ccccc2)nc(-c2ncccn2)nc1OC.[K] [β-type crystal]
moisture absorbed [2, 7]: about 4% | moisture absorbed, corresponding moles of water [2, 7]: 1.2 moles of water | humidity above which moisture is absorbed [2, 7]: exceeded 45% | heat stability (in words) [3]: excellent in heat stability
